As usually defined, the IC50 is the concentration that inhibits the measured activity by half. Low readings indicate greater potency, high ones weaker potency.

The structures appear in SMILES notation.

In one experiment the target is Endothelial lipase (EL) (Homo sapiens (Human), UniProt Q9Y5X9). The experiment is described as follows: Endothelial lipase (EL) enzymatic assay with fluorescent substrate A10070 in DMPG vesicles.
Sequence of Endothelial lipase (EL) (Q9Y5X9 21-500): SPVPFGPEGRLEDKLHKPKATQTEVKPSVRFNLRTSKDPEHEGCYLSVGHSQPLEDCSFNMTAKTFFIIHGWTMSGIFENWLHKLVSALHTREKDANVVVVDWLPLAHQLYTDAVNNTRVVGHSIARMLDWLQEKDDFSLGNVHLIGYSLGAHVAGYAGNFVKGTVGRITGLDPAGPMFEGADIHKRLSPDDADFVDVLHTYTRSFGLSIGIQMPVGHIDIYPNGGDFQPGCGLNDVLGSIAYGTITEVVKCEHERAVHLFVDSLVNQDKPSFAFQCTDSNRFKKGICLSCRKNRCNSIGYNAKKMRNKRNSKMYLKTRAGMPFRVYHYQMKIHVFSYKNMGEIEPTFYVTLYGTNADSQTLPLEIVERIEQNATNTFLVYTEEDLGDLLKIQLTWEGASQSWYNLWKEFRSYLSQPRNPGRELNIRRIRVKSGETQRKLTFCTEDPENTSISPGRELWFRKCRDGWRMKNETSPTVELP
Conditions: not given
It is filed as biochemical. Put shortly: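 EL from conditioned medium of HT-1080 cells engineered to overexpress endogenous EL; HL partially purified from conditioned medium of HL-overexpressing COS cells. Enzyme preincubated with compound 30 min at 37° C in 50 mM HEPES pH 8.0, 50 mM NaCl, 1 mM CaCl2; DMPG vesicles carrying FRET substrate (0.11 mole fraction) then added.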
Take `COCCS(=O)(=O)C(C(=O)NCC(=O)NC1CC1)c1nc2cc(C(F)(F)F)c(-c3ccc(C(=O)N4CCOCC4)cc3)cc2s1` (centres unmarked) [Example 166, N-[(cyclopropyl-carbamoyl)methyl]-2-(2-methoxyethane-sulfonyl)-2-{6-[4-(morpholine-4-arbonyl)phenyl]-5-(trifluoromethyl)-1,3-benzothiazol-2-yl}acetamide]: the IC50 was 0.02 µM.

In turn, `CS(=O)(=O)C(C(=O)NCC(=O)NC1CC1)c1nc2cc(F)c(-c3cccc4c3CC(=O)N4)cc2s1` (centres unmarked) [Example 371, N-[(cyclopropyl-carbamoyl)methyl]-2-[5-fluoro-6-(2-oxo-2,3-dihydro-1H-indol-4-yl)-1,3-benzothiazol-2-yl]-2-methanesulfonyl-acetamide] yielded an IC50 of 0.005 µM.

With `Cc1cc(-c2cc3sc(C(C(=O)NCC(=O)NC4CC4)S(=O)(=O)c4cccc(Cl)c4)nc3cc2F)cnn1` (centres unmarked) [Example 443, 2-(3-chlorobenzene-sulfonyl)-N-[(cyclopropyl-carbamoyl)methyl]-2-[5-fluoro-6-(6-methylpyridazin-4-yl)-1,3-benzothiazol-2-yl}acetamide], inhibition was half-maximal at 0.037 µM (IC50).

As to `CS(=O)(=O)C(C(=O)NCC(=O)NC1CC1)c1nc2cc(F)c(-c3ccc4c(c3)NC(=O)C4)cc2s1` (centres unmarked) [Example 372, N-[(cyclopropyl-carbamoyl)methyl]-2-[5-fluoro-6-(2-oxo-2,3-dihydro-1H-indol-6-yl)-1,3-benzothiazol-2-yl]-2-methanesulfonyl-acetamide], 0.006 µM corresponded to half-maximal inhibition (IC50).

`CC(C)CS(=O)(=O)C(C(=O)NCC(=O)NC1CC1)c1nc2cc(F)c(-c3ccc(NC(=O)OCc4ccccc4)cc3)cc2s1` (centres unmarked) [Example 49, benzyl N-{4-[2-({[(cyclopropyl-carbamoyl)methyl]carbamoyl}(2-methylpropane-sulfonyl)methyl)-5-fluoro-1,3-benzothiazol-6-yl]phenyl}carbamate] had an IC50 of 0.003 µM.

With `CC(=O)Nc1ccc(-c2cc3nc(C(C(=O)NCC(=O)NC4CC4)S(C)(=O)=O)sc3cc2F)cc1` (centres unmarked) [Example 113, N-[(cyclopropyl-carbamoyl)methyl]-2-[5-(4-acetamidophenyl)-6-fluoro-1,3-benzothiazol-2-yl]-2-methanesulfonyl-acetamide], the IC50 came to 0.009 µM.

Molecule `CC(C)S(=O)(=O)C(C(=O)NCC(=O)NC1CC1)c1nc2cc(-c3ccc4c(c3)CC(=O)N4)c(F)cc2s1` (centres unmarked) [Example 266, N-[(cyclopropyl-carbamoyl)methyl]-2-[6-fluoro-5-(2-oxo-2,3-dihydro-1H-indol-5-yl)-1,3-benzothiazol-2-yl]-2-(propane-2-sulfonyl)acetamide] displayed an IC50 of 0.038 µM.

For `COCCS(=O)(=O)C(C(=O)NCC(=O)NC1CC1)c1nc2cc(Cl)c(-c3ccc(NC(C)=O)cc3)cc2s1` (centres unmarked) [Example 96, 2-[5-chloro-6-(4-acetamidophenyl)-1,3-benzothiazol-2-yl]-N-[(cyclopropyl-carbamoyl)methyl]-2-(2-methoxyethane-sulfonyl) acetamide], the half-maximal inhibitory concentration (IC50) amounted to 0.002 µM.

In turn, `COCCS(=O)(=O)C(C(=O)NCC(=O)NC1CC1)c1nc2cc(F)c(-c3ccnn3C)cc2s1` (centres unmarked) [Example 167, N-[(cyclopropyl-carbamoyl)methyl]-2-[5-fluoro-6-(1-methyl-1H-pyrazol-5-yl)-1,3-benzothiazol-2-yl]-2-(2-methoxyethane-sulfonyl) acetamide] came in with a 50% inhibitory concentration (IC50) of 0.023 µM.

`O=C(CNC(=O)C(c1nc2c(F)cc(-c3ccc(F)nc3)cc2s1)S(=O)(=O)c1ccc(F)cc1)NC1CC1` (centres unmarked) [Example 472, N-[(cyclopropyl-carbamoyl)methyl]-2-[4-fluoro-6-(6-fluoropyridin-3-yl)-1,3-benzothiazol-2-yl]-2-(4-fluorobenzene-sulfonyl)acetamide] returned an IC50 of 0.023 µM.

`COCCS(=O)(=O)C(C(=O)NCC(=O)NC1CC1)c1nc2cc(-c3ccc(F)cn3)ccc2s1` (centres unmarked) [Example 90, N-[(cyclopropyl-carbamoyl)methyl]-2-[5-(5-fluoropyridin-2-yl)-1,3-benzothiazol-2-yl]-2-(2-methoxyethane-sulfonyl) acetamide] showed an IC50 of 0.274 µM.

For the molecule `O=C(CNC(=O)C(c1nc2cc(F)c(-c3ccc(NC(=O)OCC4CC4)cc3)cc2s1)S(=O)(=O)C1CC1)NC1CC1` (centres unmarked) [Example 530, cyclopropylmethyl N-(4-{2-[(cyclopropane-sulfonyl) ({[(cyclopropyl-carbamoyl)methyl]carbamoyl})methyl]-5-fluoro-1,3-benzothiazol-6-yl}phenyl) carbamate], the IC50 is 0.003 µM. This IC50 lies about 91-fold lower than the previous one.

`COCCS(=O)(=O)C(C(=O)NCC(=O)NC1CC1)c1nc2cc(F)c(-c3ccc(C(=O)N4CCOCC4)cc3)cc2s1` (centres unmarked) [Example 161, N-[(cyclopropyl-carbamoyl)methyl]-2-{5-fluoro-6-[4-(morpholine-4-carbonyl)phenyl]-1,3-benzothiazol-2-yl}-2-(2-methoxyethane-sulfonyl) acetamide] came in with an IC50 of 0.014 µM.

`COC1(C)CN(C(=O)c2ccc(-c3ccc4nc(C(C(=O)NCC(=O)NC5CC5)S(=O)(=O)c5ccccc5)sc4c3)cc2)C1` (centres unmarked) [Example 401, 2-(benzenesulfonyl)-N-[(cyclopropyl-carbamoyl)methyl]-2-{6-[4-(3-methoxy-3-methylazetidine-1-carbonyl)phenyl]-1,3-benzothiazol-2-yl}acetamide] returned an IC50 of 0.005 µM.

`CS(=O)(=O)C(C(=O)NCC(=O)NC1CC1)c1nc2cc(F)c(-c3ccc(C(N)=O)c(Cl)c3)cc2s1` (centres unmarked) [Example 328, 2-chloro-4-[2-({[(cyclopropyl-carbamoyl)methyl]carbamoyl} (methanesulfonyl)methyl)-5-fluoro-1,3-benzothiazol-6-yl]benzamide] registered an IC50 of 0.022 µM.

In the case of `CC(C)S(=O)(=O)C(C(=O)NCC(=O)NC1CC1)c1nc2cc(-c3ccc(C#N)cc3)c(F)cc2s1` (centres unmarked) [Example 275, 2-[5-(4-cyanophenyl)-6-fluoro-1,3-benzothiazol-2-yl]-N-[(cyclopropyl-carbamoyl)methyl]-2-(propane-2-sulfonyl)acetamide], the IC50 was 0.04 µM.

For the molecule `COCCS(=O)(=O)C(C(=O)NCC(=O)NC1CC1)c1nc2cc(-c3cncnc3)c(C)cc2s1` (centres unmarked) [Example 183, N-[(cyclopropyl-carbamoyl)methyl]-2-(2-methoxyethane-sulfonyl)-2-[6-methyl-5-(pyrimidin-5-yl)-1,3-benzothiazol-2-yl]acetamide], the IC50 was 0.039 µM. The IC50 values of the last two molecules are within 1.5-fold of each other.

The molecule `CCCCS(=O)(=O)C(C(=O)NCC(=O)NC1CC1)c1nc2cc(F)c(-c3ccc(NC(=O)OCc4ccccc4)cc3)cc2s1` (centres unmarked) [Example 53, benzyl N-(4-{2-[(butane-1-sulfonyl) ({[(cyclopropyl-carbamoyl)methyl]carbamoyl})methyl]-5-fluoro-1,3-benzothiazol-6-yl}phenyl) carbamate] registered an IC50 of 0.002 µM. This IC50 lies about 20-fold lower than the previous one.

`O=C(CNC(=O)C(c1nc2c(F)cc(-c3cnc(C4CC4)nc3)cc2s1)S(=O)(=O)c1ccc(F)cc1)NC1CC1` (centres unmarked) [Example 476, N-[(cyclopropyl-carbamoyl)methyl]-2-[6-(2-cyclopropyl-pyrimidin-5-yl)-4-fluoro-1,3-benzothiazol-2-yl]-2-(4-fluorobenzene-sulfonyl)acetamide] had an IC50 of 0.051 µM.

`COCCS(=O)(=O)C(C(=O)NCC(=O)NC1CC1)c1nc2c(F)cc(-c3cnc(C4CC4)nc3)cc2s1` (centres unmarked) [Example 223, N-[(cyclopropyl-carbamoyl)methyl]-2-[6-(2-cyclopropyl-pyrimidin-5-yl)-4-fluoro-1,3-benzothiazol-2-yl]-2-(2-methoxyethane-sulfonyl) acetamide] yielded an IC50 of 0.08 µM. This IC50 is about 1.6-fold higher than that of the molecule before.

Regarding `COC(=O)N(C)c1ccc(-c2ccc3nc(C(C(=O)NCC(=O)NC4CC4)S(=O)(=O)CCC(F)(F)F)sc3c2)cc1` (centres unmarked) [Example 24, methyl N-{4-[2-({[(cyclopropyl-carbamoyl)methyl]carbamoyl} (3,3,3-trifluoropropane-sulfonyl)methyl)-1,3-benzothiazol-6-yl]phenyl}-N-methylcarbamate], the midpoint of inhibition, the IC50, lay at 0.006 µM.

As to `COC(=O)Nc1ccc(-c2ccc3nc(C(C(=O)NCC(=O)NC4CC4)S(C)(=O)=O)sc3c2)cc1` (centres unmarked) [Example 95, methyl N-{4-[2-({[(cyclopropyl-carbamoyl)methyl]carbamoyl} (methanesulfonyl)methyl)-1,3-benzothiazol-6-yl]phenyl}carbamate], the half-inhibitory concentration (IC50) came to 0.002 µM. Against the preceding molecule, the IC50 is about 3-fold lower.

For the molecule `COCCS(=O)(=O)C(C(=O)NCC(=O)NC1CC1)c1nc2cc(C(F)(F)F)c(-c3ccc(F)nc3)cc2s1` (centres unmarked) [Example 173, N-[(cyclopropyl-carbamoyl)methyl]-2-[6-(6-fluoropyridin-3-yl)-5-(trifluoromethyl)-1,3-benzothiazol-2-yl]-2-(2-methoxyethane-sulfonyl) acetamide], it took 0.032 µM to reach half-maximal inhibition (IC50).

`Cc1cc2nc(C(C(=O)NCC(=O)NC3CC3)S(=O)(=O)C(C)C)sc2cc1-c1ccc(C(=O)N(C)C)cc1` (centres unmarked) [Example 215, 4-[2-({[(cyclopropyl-carbamoyl)methyl]carbamoyl} (propane-2-sulfonyl)methyl)-5-methyl-1,3-benzothiazol-6-yl]-N,N-dimethyl-benzamide] came in with an IC50 of 0.019 µM.

The experiment is the same for the next values; noted with them: EL from conditioned media of HT-1080 cells; 30 min preincubation at 37° C.
As for `O=C(CNC(=O)C(c1nc2cc(F)c(-c3ccc(C(=O)NCCc4ccccc4)cc3)cc2s1)S(=O)(=O)CCC(F)(F)F)NC1CC1` (centres unmarked) [Example 572, 4-[2-({[(Cyclopropylcarbamoyl)methyl]carbamoyl}(3,3,3-trifluoropropanesulfonyl)methyl)-5-fluoro-1,3-benzothiazol-6-yl]-N-(2-phenylethyl)benzamide], the IC50 stood at 0.0028 µM.

In turn, `CS(=O)(=O)C(C(=O)NCC(=O)NC1CC1)c1nc2cc(F)c(-c3ccc(NC(=O)OCc4ccccn4)cc3)cc2s1` (centres unmarked) [Example 510, Pyridin-2-ylmethyl (4-(2-(2-((2-(cyclopropylamino)-2-oxoethyl)amino)-1-(methylsulfonyl)-2-oxoethyl)-5-fluorobenzo[d]thiazol-6-yl)phenyl)carbamate] gave an IC50 of 0.0013 µM.

Source of the values: patent US10173991B2, “Sulfone amide linked benzothiazole inhibitors of endothelial lipase” (BRISTOL-MYERS SQUIBB COMPANY, priority 2014, dated 2019).
